One assay deals with human mGluR1 (Homo sapiens (Human), UniProt Q13255). The assay can be described thus: mGluR1 antagonism, L-glutamate induced intracellular calcium increase (FLIPR) in CHO cells stably expressing human mGluR1. As to conditions: for IC50: L-glutamate induced intracellular calcium, CHO cells expressing human mGluR1, FLIPR. Type of assay: cell-based. The text has this:
Activity of compounds of the present invention with respect to mGluR1 antagonism was examined by an assay based on measurements of L-glutamate induced intracellular calcium increases using a 96 well plate-based Fluorometric Imaging Plate Reader (FLIPR), and CHO cells stably expressing human mGluR1. L-glutamate induced robust calcium responses via human mGluR1 in a concentration-dependent manner and in the low micromolar range. The table below represents IC50 values of the inhibition of the glutamate-induced elevation of the intracellular calcium concentration.

For another assay, the target named is human mGluR5a receptors (Homo sapiens (Human), UniProt P41594). The assay can be described thus: inhibition of glutamate-induced elevation of intracellular calcium in L(tk-) cells expressing human mGluR5a. Type of assay: cell-based. The conditions noted are these: for IC50: glutamate-induced intracellular calcium elevation, L(tk-) cells expressing human mGluR5a, read-out: mGluR5 IC50; for inhibition at 10 µM: LTK, read-out: mGluR5 % inhibition at 10 μM. An excerpt:
Activity of compounds of the present invention was examined by determination to what extent the glutamate-induced elevation of the intracellular calcium concentration in L(tk-) cells expressing human mGluR5a receptors (see L. P. Daggett et al., Neuropharm. Vol. 34, pages 871-886, 1995) is inhibited by utilizing methods as described e.g. by L. P. Daggett et al., Neuropharm. Vol. 34, pages 871-886 (1995) and P. J. Flor et al., J. Neurochem. Vol. 67, pages 58-63 (1996).

human mGluR1, sequence (Q13255 19-1194): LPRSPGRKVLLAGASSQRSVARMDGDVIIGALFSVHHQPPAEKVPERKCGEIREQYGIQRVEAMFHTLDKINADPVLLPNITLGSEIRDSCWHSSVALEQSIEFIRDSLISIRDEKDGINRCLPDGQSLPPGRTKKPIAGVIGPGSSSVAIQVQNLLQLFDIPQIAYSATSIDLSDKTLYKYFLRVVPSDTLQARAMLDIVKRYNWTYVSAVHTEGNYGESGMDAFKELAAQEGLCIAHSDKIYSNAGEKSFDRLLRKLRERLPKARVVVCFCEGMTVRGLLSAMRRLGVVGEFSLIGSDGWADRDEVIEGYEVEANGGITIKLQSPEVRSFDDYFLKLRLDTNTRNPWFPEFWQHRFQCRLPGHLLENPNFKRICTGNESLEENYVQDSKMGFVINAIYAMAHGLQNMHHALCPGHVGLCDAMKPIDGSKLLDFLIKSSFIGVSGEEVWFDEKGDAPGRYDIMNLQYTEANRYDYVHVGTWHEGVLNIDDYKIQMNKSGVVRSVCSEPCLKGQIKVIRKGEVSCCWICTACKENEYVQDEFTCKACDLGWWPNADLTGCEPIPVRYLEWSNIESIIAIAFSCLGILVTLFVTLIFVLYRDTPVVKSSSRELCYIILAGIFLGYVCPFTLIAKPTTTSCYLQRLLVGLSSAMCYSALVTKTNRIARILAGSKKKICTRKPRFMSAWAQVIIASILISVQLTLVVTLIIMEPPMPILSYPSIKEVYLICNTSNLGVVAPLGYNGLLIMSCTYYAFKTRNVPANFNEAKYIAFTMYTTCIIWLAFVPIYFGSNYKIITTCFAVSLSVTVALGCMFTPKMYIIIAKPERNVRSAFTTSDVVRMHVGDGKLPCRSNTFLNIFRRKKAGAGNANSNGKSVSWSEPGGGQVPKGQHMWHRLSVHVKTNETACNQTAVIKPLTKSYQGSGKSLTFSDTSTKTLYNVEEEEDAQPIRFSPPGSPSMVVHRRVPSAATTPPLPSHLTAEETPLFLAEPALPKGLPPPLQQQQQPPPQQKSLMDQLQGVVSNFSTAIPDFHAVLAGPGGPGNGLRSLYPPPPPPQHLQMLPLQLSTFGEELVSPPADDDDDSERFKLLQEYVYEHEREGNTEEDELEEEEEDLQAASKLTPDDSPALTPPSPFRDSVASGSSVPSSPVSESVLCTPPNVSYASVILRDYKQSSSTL
human mGluR5a receptors, sequence (P41594 other isoform, or with tags, fused parts or gaps): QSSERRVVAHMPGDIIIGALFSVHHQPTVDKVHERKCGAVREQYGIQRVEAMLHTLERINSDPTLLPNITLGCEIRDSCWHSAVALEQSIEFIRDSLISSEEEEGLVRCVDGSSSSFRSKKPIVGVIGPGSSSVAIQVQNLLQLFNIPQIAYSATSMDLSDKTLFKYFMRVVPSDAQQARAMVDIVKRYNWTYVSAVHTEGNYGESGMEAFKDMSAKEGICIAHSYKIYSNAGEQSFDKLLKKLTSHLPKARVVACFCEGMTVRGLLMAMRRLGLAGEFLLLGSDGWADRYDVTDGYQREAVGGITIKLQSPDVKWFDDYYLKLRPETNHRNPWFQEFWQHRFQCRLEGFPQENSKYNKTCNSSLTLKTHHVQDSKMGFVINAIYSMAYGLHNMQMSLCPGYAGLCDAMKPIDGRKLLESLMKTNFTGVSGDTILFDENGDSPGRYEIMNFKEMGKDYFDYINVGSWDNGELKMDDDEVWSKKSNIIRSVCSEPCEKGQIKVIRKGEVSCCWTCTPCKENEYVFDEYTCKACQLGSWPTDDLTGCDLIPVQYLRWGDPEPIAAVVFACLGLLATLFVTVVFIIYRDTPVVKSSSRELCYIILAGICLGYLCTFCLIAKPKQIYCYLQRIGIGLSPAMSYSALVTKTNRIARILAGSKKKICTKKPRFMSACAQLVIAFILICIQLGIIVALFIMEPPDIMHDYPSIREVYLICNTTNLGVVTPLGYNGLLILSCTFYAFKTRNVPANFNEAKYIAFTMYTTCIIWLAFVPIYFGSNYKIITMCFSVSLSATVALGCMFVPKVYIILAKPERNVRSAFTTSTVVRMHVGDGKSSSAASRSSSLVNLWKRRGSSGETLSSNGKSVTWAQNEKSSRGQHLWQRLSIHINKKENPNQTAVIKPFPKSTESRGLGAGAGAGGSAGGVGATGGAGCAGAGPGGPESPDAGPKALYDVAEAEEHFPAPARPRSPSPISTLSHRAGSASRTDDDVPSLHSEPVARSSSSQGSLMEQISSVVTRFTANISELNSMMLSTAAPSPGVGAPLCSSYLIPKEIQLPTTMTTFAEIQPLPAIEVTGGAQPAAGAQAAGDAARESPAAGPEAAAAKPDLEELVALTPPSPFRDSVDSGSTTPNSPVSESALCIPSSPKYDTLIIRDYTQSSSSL

For the molecule `CCc1cn(C2=NCC(=O)N3CCc4c(cccc4C4CCCO4)C3=C2)cn1` (racemic) [Example 111, 2-(4-ethyl-1H-imidazol-1-yl)-9-(tetrahydrofuran-2-yl)-7,8-dihydro-[1,4]diazepino[7,1-a]isoquinolin-5(4H)-one], the IC50 was 9300 nM on human mGluR1 and 53 nM on human mGluR5a receptors.
Consider `CCc1cn(C2=NCC(=O)N3CCc4c(cccc4C4(O)COC4)C3=C2)cn1` [2-(4-ethyl-1H-imidazol-1-yl)-9-(3-hydroxyoxetan-3-yl)-7,8-dihydro-[1,4]diazepino[7,1-a]isoquinolin-5(4H)-one], for which the inhibition at 10 µM at human mGluR5a receptors was less than 20%.
The same measure, in the same setting: in the case of `Cc1ccnn1C1=NCC(=O)N2CCc3c(Cl)cccc3C2=C1` [9-chloro-2-(5-methyl-1H-pyrazol-1-yl)-7,8-dihydro-[1,4]diazepino[7,1-a]isoquinolin-5(4H)-one] it was less than 20%.
As to `COc1cccc(C2=NCC(=O)N3CCc4c(OC)cccc4C3=C2)c1` [Example 1, 9-methoxy-2-(3-methoxyphenyl)-7,8-dihydro-[1,4]diazepino[7,1-a]isoquinolin-5(4H)-one], the values for the IC50 at human mGluR1 and at human mGluR5a receptors were 6400 nM and 327 nM, respectively.
As to `O=C1CN=C(c2cccs2)C=C2c3cccc(Cl)c3CCN12` [Example 2, 9-chloro-2-(thiophen-2-yl)-7,8-dihydro-[1,4]diazepino[7,1-a]isoquinolin-5(4H)-one], the half-maximal inhibitory concentration (IC50) was found to be 27 nM at human mGluR1 and 90 nM on human mGluR5a receptors.
As to `COc1cccc(C2=NCC(=O)N3CCc4c(Cl)cccc4C3=C2)c1` [Example 3, 9-chloro-2-(3-methoxyphenyl)-7,8-dihydro-[1,4]diazepino[7,1-a]isoquinolin-5(4H)-one], the IC50 at human mGluR1 is 585 nM; at human mGluR5a receptors it was 220 nM.
For `O=C1CN=C(c2cccs2)C=C2c3cccc(C(F)(F)F)c3CCN12` [Example 4, 2-(thiophen-2-yl)-9-(trifluoromethyl)-7,8-dihydro-[1,4]diazepino[7,1-a]isoquinolin-5(4H)-one], in that order: 150 nM and 180 nM.
For `COc1cccc2c1CCN1C(=O)CN=C(c3cccs3)C=C21` [Example 5, 9-methoxy-2-(thiophen-2-yl)-7,8-dihydro-[1,4]diazepino[7,1-a]isoquinolin-5(4H)-one], in that order: 15 nM and 44 nM.
On to `COc1cc(C2=NCC(=O)N3CCc4c(Cl)cccc4C3=C2)ccn1` [Example 6, 9-chloro-2-(2-methoxypyridin-4-yl)-7,8-dihydro-[1,4]diazepino[7,1-a]isoquinolin-5(4H)-one], for which the IC50 at human mGluR1 was found to be 3050 nM; on human mGluR5a receptors, 75 nM.
For `COc1cccc2c1CCN1C(=O)CN=C(c3ccc(C)o3)C=C21` [Example 7, 9-methoxy-2-(5-methylfuran-2-yl)-7,8-dihydro-[1,4]diazepino[7,1-a]isoquinolin-5(4H)-one], in that order: 210 nM and 24 nM.
For `COc1cc(C2=NCC(=O)N3CCc4c(OC)cccc4C3=C2)ccn1` [Example 8, 9-methoxy-2-(2-methoxypyridin-4-yl)-7,8-dihydro-[1,4]diazepino[7,1-a]isoquinolin-5(4H)-one], in that order: 4900 nM and 22 nM.
For `COc1cccc(C2=NCC(=O)N3CCc4c(OC)cccc4C3=C2)n1` [Example 9, 9-methoxy-2-(6-methoxypyridin-2-yl)-7,8-dihydro-[1,4]diazepino[7,1-a]isoquinolin-5(4H)-one], in that order: greater than 10000 nM and 600 nM.
Consider `CCc1cc(C2=NCC(=O)N3CCc4c(OC)cccc4C3=C2)ccn1` [Example 10, 2-(2-ethylpyridin-4-yl)-9-methoxy-7,8-dihydro-[1,4]diazepino[7,1-a]isoquinolin-5(4H)-one], for which the IC50 on human mGluR1 is 940 nM; at human mGluR5a receptors, 345 nM.
The matching figures for `COc1cccc2c1CCN1C(=O)CN=C(c3ccn(C)n3)C=C21` [Example 11, 9-methoxy-2-(1-methyl-1H-pyrazol-3-yl)-7,8-dihydro-[1,4]diazepino[7,1-a]isoquinolin-5(4H)-one]: 690 nM and 170 nM.
Turning to `COCCOc1cccc(C2=NCC(=O)N3CCc4c(OC)cccc4C3=C2)c1` [Example 12, 9-methoxy-2-(3-(2-methoxyethoxy)phenyl)-7,8-dihydro-[1,4]diazepino[7,1-a]isoquinolin-5(4H)-one], the IC50 on human mGluR1 came to 1300 nM; on human mGluR5a receptors, 46 nM.
The matching figures for `COc1cccc(C2=NCC(=O)N3CCc4c(ccc(Cl)c4OC)C3=C2)c1` [Example 13, 10-chloro-9-methoxy-2-(3-methoxyphenyl)-7,8-dihydro-[1,4]diazepino[7,1-a]isoquinolin-5(4H)-one]: 530 nM and 82 nM.
For `COc1cccc(C2=NCC(=O)N3CCc4c(OC)cc(Cl)cc4C3=C2)c1` [Example 14, 11-chloro-9-methoxy-2-(3-methoxyphenyl)-7,8-dihydro-[1,4]diazepino[7,1-a]isoquinolin-5(4H)-one], in that order: greater than 10000 nM and 550 nM.
As to `CCOc1cccc(C2=NCC(=O)N3C(=C2)c2cccc(OC)c2CC3C)c1` (stereo not drawn) [Example 15, 2-(3-ethoxyphenyl)-9-methoxy-7-methyl-7,8-dihydro-[1,4]diazepino[7,1-a]isoquinolin-5(4H)-one], the inhibition at 10 µM at human mGluR1 (CHO) worked out at 44%; on human mGluR5a receptors, 42%.
As to `COc1cccc2c1CCN1C(=O)CN=C(c3cccc(C(F)(F)F)c3)C=C21` [Example 16, 9-methoxy-2-(3-(trifluoromethyl)phenyl)-7,8-dihydro-[1,4]diazepino[7,1-a]isoquinolin-5(4H)-one], the results for the IC50 on human mGluR1 and on human mGluR5a receptors were 3500 nM and 2200 nM, respectively.
For `COc1ccc(C2=NCC(=O)N3CCc4c(OC)cccc4C3=C2)cc1` [Example 17, 9-methoxy-2-(4-methoxyphenyl)-7,8-dihydro-[1,4]diazepino[7,1-a]isoquinolin-5(4H)-one], the IC50 was greater than 10000 nM at human mGluR1 and 2200 nM at human mGluR5a receptors.
For `COc1ccc(C)c(C2=NCC(=O)N3CCc4c(OC)cccc4C3=C2)c1` [Example 18, 9-methoxy-2-(5-methoxy-2-methylphenyl)-7,8-dihydro-[1,4]diazepino[7,1-a]isoquinolin-5(4H)-one], the values for the half-maximal inhibitory concentration (IC50) on human mGluR1 and at human mGluR5a receptors were greater than 10000 nM and 4100 nM, respectively.
On to `O=C1CN=C(c2cccs2)C=C2c3cccc(F)c3CCN12` [Example 19, 9-fluoro-2-(thiophen-2-yl)-7,8-dihydro-[1,4]diazepino[7,1-a]isoquinolin-5(4H)-one], for which the results for the IC50 at human mGluR1 and at human mGluR5a receptors were 800 nM and 4500 nM, respectively.
The matching figures for `COc1cccc(C2=NCC(=O)N3CCc4c(Br)cccc4C3=C2)c1` [Example 20, 9-bromo-2-(3-methoxyphenyl)-7,8-dihydro-[1,4]diazepino[7,1-a]isoquinolin-5(4H)-one]: 2800 nM and 1200 nM.
On to `O=C1CN=C(n2cnc(C3CCC3)n2)C=C2c3cccc(-c4ccc(F)nc4)c3CCN12` [Example 99h, 2-(3-cyclobutyl-1H-1,2,4-triazol-1-yl)-9-(6-fluoropyridin-3-yl)-7,8-dihydro-[1,4]diazepino[7,1-a]isoquinolin-5(4H)-one], for which the IC50 at human mGluR5a receptors was determined as 38 nM.

The IC50 is the concentration needed to halve the response being measured. By inhibition is commonly meant how much of the control response was suppressed.

The record behind these values is patent publication US8853203B2, “Diazepinone derivatives” (Novartis AG, priority 2012, dated 2014).
